Source: patent EP0092060A1, “Pharmaceutical products in sustained-release form, and their preparation process” (LABORATORI PROPHIN Industria Chimica Farmaceutica S.p.A., priority 1982, dated 1983)

Columns and labels:
[1] = Drug release (dissolution), USP XX paddle apparatus, distilled water at 37°C; format: physicochemical; settings: for time to total release: drug simply pasted/mixed into the polymer support matrix (uncoated nuclei); for release kinetics / release rate: nuclei covered with the diffusion regulating film; for release rate: during the release period; for influence of the second film on the drug diffusion rate: nuclei with first and second films compared with first film only; for % drug released: distilled water at 37°C, average of 6 determinations
Description: The Tiapride release was monitored for the uncoated nuclei, the nuclei with the first film applied, and the finished nuclei also comprising the second film.
A USP XX paddle apparatus was used, the dissolving medium being distilled water at 37°C.
The obtained results given hereinafter are the average of 6 determinations.
The Diltiazem release rate was measured on noncoated nuclei, nuclei coated with the first film and the finalized form with the second film coating.
A USP XX paddle apparatus was used and the dissolving medium was distilled water at 37°C.

[2] = Pharmacokinetic parameters obtained in man, used to calculate the optimum hourly dose; settings: human, in vivo, read-out: elimination constant (Kel) (converted)
[3] = cited from earlier work

Structure (SMILES): COc1ccc([C@@H]2Sc3ccccc3N(CCN(C)C)C(=O)[C@@H]2OC(C)=O)cc1 [Diltiazem]
- time to total release [1]: totally released within two hours
- release kinetics [1]: on the order of zero
- release rate [1]: 10 to 15 mg/h
- influence of the second film on the drug diffusion rate [1]: practically no effect
- k el [2]: 3.42e-05 s⁻¹
- distribution volume (Vd) ([3]; humans, unit not given): 1065
- half life ([3]; in man): 4 h

Structure (SMILES): CCN(CC)CCNC(=O)c1cc(S(C)(=O)=O)ccc1OC.Cl [Tiapride, N-diethylaminoethyl-2-methoxy-5-methylsulphonyl-benzamide hydrochloride]
- time to total release [1]: totally released within two hours
- release kinetics [1]: zero order
- release rate [1]: 10 to 15 mg/h
- % drug released ([1]; nuclei covered with the first and second films, 1 hour): 0%
- % drug released ([1]; nuclei covered with the first and second films, 2 hours): 1%
- % drug released ([1]; nuclei covered with the first and second films, 3 hours): 16%
- % drug released ([1]; nuclei covered with the first and second films, 4.5 hours): 34%
- % drug released ([1]; nuclei covered with the first and second films, 5.5 hours): 44%
- % drug released ([1]; nuclei covered with the first and second films, 6.5 hours): 57%
- % drug released ([1]; nuclei covered with the first and second films, 7.5 hours): 71%
- % drug released ([1]; nuclei covered with the first and second films, 8.5 hours): 83%
- % drug released ([1]; nuclei covered with the first film, 1 hour): 2%
- % drug released ([1]; nuclei covered with the first film, 2 hours): 4%
- % drug released ([1]; nuclei covered with the first film, 3 hours): 14%
- % drug released ([1]; nuclei covered with the first film, 3.5 hours): 19.3%
- % drug released ([1]; nuclei covered with the first film, 4.5 hours): 34%
- % drug released ([1]; nuclei covered with the first film, 5 hours): 47%
- % drug released ([1]; nuclei covered with the first film, 6 hours): 57%
- % drug released ([1]; nuclei covered with the first film, 7 hours): 69%
- % drug released ([1]; nuclei covered with the first film, 8 hours): 83%
- influence of the second film on the drug diffusion rate [1]: practically no influence
- % drug released ([1]; uncoated nuclei, 15 min): 37.8%
- % drug released ([1]; uncoated nuclei, 30 min): 51.6%
- % drug released ([1]; uncoated nuclei, 60 min): 71.1%
- % drug released ([1]; uncoated nuclei, 90 min): 80.3%
- % drug released ([1]; uncoated nuclei, 120 min): 86.0%
- k el [2]: 4.81e-05 s⁻¹
- hematic peak after administering 100 mg (Cp) ([3]; in man, 100 mg): 0.8 µg/mL
- half life ([3]; in man): 4 h
- therapeutic range ([3]; in man): 0.6 - 0.9 mg/l of plasma
